Experimental data as given in patent US20150238401A1, “PROPYL-PHENYL-ETHER DERIVATIVE, AND MELANOGENESIS INHIBITOR, SKIN-LIGHTENING AGENT, ANTIMICROBIAL AGENT AND COSMETIC CONTAINING SAID PROPYL-PHENYL-ETHER DERIVATIVE” (SEIWA KASEI COMPANY, LIMITED, priority 2012, published 2015).

Key:
[1] = Stability test (coloration on storage); assay type: physicochemical; settings: for Coloration, 2 weeks after / Coloration, 4 weeks after: 1% in 50% ethanol, pH 6.0 to 8.0, stored at 50° C., total points of 10 panelists
Description: Aascorbic acid, kojic acid, hydroquinone and arbutin which are known skin-lightening agents were used as comparative compounds. […] The solutions were placed in 50 mL screw tubes and closely sealed, and stored at 50° C. for 4 weeks. The degrees of coloration of the solution directly after preparation of the test sample, 2 weeks after storage and 4 weeks after storage were evaluated by 10 panelists according to the following criteria. 3: almost no change as compared with directly after preparation 2: colored as compared with directly after preparation 1: intensely colored as compared with directly after preparation The evaluation results of coloration were classified as described below.

B16 melanoma 4A5 cell = experiment: Melanogenesis inhibiting test (theophylline-induced melanine production); assay type: cell-based; settings: B16 mouse melanoma 4A5, theophylline 1.0 mmol/L, 3 days culture, N=4; for IC40: B16 melanoma 4A5, 72 h, read-out: Judgment: sample concentration showing the melanogenesis inhibiting ratio of 40% or more
Description: As a test for a skin-lightening effect, evaluation of the action of B16 melanoma 4A5 cell on theophylline-induced melanine production was carried out on propyl-phenyl-ether derivatives of the present invention, according to the following procedure. (1) B16 mouse melanoma 4A5 strain was sowed onto a 48-well plate at a cell density of 8.0×10^3 cells/well. (2) Culturing was performed for 24 hours with Dulbecco's Modified Eagle's medium (manufactured by SIGMA. Hereinafter, abbreviated as D-MEM) containing 10% fetal bovine serum (manufactured by Nichirei Biosciences Inc.). […] (3) After culturing for 3 days in the co-existence of a sample, the medium was removed using an aspirator. Then, after distilled water was added, cells were broken by an ultrasonic wave. (4) Thereafter, the amount of protein was determined using BCA protein assay kit (manufactured by Thermo Fisher Scientific Inc.), and the produced amount of melanine was measured by an alkali solubilizing method described below. [Alkali Solubilizing Method] To the cell-destructed solution was added sodium hydroxide so as to give a final concentration of 1 mol/L and the mixture was dissolved by heating (60° C., 30 minutes), then, the absorbance at 450 nm was measured using a micro plate reader. The melanine amount was calculated from a calibration curve made using synthetic melanine (SIGMA) as a standard. The melanine amount per unit protein was calculated by dividing the melanine amount by the protein amount. (5) The melanine production suppressing rate was calculated according to the following formula. Melanine production suppressing rate (%)=[1−(A−B)/(C−B)]×100 [wherein, A represents the melanine amount per unit protein (g/g) in adding a sample, B represents the melanine amount per unit protein (g/g) in the normal group, and C represents the melanine amount per unit protein (g/g) in the control group.] In the above, Normal group is a case of theophylline (−; no addition) and sample (−; no addition), and Control group is a case of theophylline (+; addition) and sample (−; no addition). (6) Determination of Skin-Lightening Effect The amount of a sample required for adjusting the melanogenesis inhibiting ratio to 40% or more was measured, and the effect was evaluated by the following criteria based on the measured amount. The measurement was conducted at N=4 (4 wells per sample). The skin-lightening effect is expressed as described below based on the sample concentration showing the melanogenesis inhibiting ratio of 40% or more. The measurement was conducted at N=4.

[2] = system: Escherichia coli, Pseudomonas aeruginosa, Staphylococcus aureus and Candida albicans; experiment: Antimicrobial test on SCD agar medium containing the sample; assay type: cell-based; settings: 12 specimens per sample (3.0%, 1.0%, 0.5% x four microorganisms), 30° C., 7 days, visual
Description: The propyl-phenyl-ether derivative of the present invention was evaluated for an antimicrobial test using four bacteria: Escherichia coli, Pseudomonas aeruginosa, Staphylococcus aureus and Candida albicans (use of ATCC strain) according to the following procedure. As a comparative compound, 1,2-pentandiol was used.
(1) Into a test tube containing 1.0 g of Tween 80 (polyoxyethylene sorbitan monooleate) added, 0.3 g, 0.1 g or 0.05 g of various samples were added, and SCD (Soybean Casein Digest) agar medium was added each in an amount of about 10 mL so as to give final concentrations of 3.0%, 1.0% and 0.5%, and stirred thoroughly with Vortex. Thereafter, the sample-containing medium was sterilized by high-pressure steam sterilization (for 15 minutes at 121° C.), cooled down to 45° C., the medium was poured gently onto a petri dish sterilized previously, and spread over the whole petri dish having signage of 4-section on the outer surface of the bottom, and allowed to stand still to solidify the medium. (2) Thereafter, various bacterium solutions of which number of bacteria had been previously regulated to 1.0×10^4 to 5.0×10^4 cfu/mL were inoculated on the sample-containing medium prepared in (1), each one bacterium for one section of the petri dish, each in an amount of 10 μL on four places (three concentrations are applied to four kinds of bacteria for each sample, that is, 12 specimens per sample). (3) These were cultured in a 30° C. thermostat bath for 7 days. (4) The presence or absence of bacteria was determined visually.
The results are classified by the following criteria and shown in Table 4. • The number of specimens confirming bacteria was 10 or more: Δ • The number of specimens confirming bacteria was 6 to 9: ◯ • The number of specimens confirming bacteria was 5 or less: ⊚

[3] = system: Propionibacterium acnes (JCM6415); experiment: Anti-acne test (growth in GAM bouillon medium, OD620); assay type: cell-based; settings: sample final concentration 0.1%, 37° C., anaerobic, 48 hours
Description: Propionibacterium acnes (JCM6415: ATCC strain) was transplanted to GAM bouillon medium (manufactured by Nissui Pharmaceutical Co., Ltd.), and cultured at 37° C. under anaerobic condition for 24 hours. Thereafter, it was diluted with GAM bouillon medium so that the final bacterium concentration was OD620=0.1, and this was used as a test bacterium solution. In examples, the propyl-phenyl-ether derivative was weighed so that the final concentration was 0.1%, dissolved in GAM bouillon medium, then, filter-sterilization was performed. The resultant solution was used as a sample solution. The test bacterium solution was added in an amount of 30 μL and the sample solution was added in an amount of 120 μL to a 96-well microplate (manufactured by Sumitomo Bakelite Co., Ltd.), then, immediately, the micro plate and AnaeroPack-KENKI (manufactured by Mitsubishi Gas Chemical Co., Inc.) were placed into an anaerobic jar (manufactured by Mitsubishi Gas Chemical Co., Inc.), and culture was carried out at 37° C. under anaerobic condition for 48 hours. Thereafter, OD620 was measured by a microplate reader. The same test was conducted using methylparaben, phenoxyethanol and sodium ascorbate as comparative compounds.
The results are classified by the following criteria and shown in Table 5-Table 7. • Δ: OD620 is 0.6 or more • ◯: OD620 is 0.3-0.6 • ⊚: OD620 is 0.3 or less

## Oc1ccc(O)cc1 [Hydroquinone]
[1]
  Coloration, 2 weeks after: X (X: total points of 10 panelists is 14 or less)
[1]; 4 weeks
  Coloration, 4 weeks after: X (X: total points of 10 panelists is 14 or less)
B16 melanoma 4A5 cell
  IC40: ≥ 300 µM

## CCCCCCCC(=O)OCC(COc1ccc(C(C)(C)C)cc1)OC(=O)CCCCCCC (stereo not shown) [Example 7, 1,2-di-octanoyl-3-(4′-tert-butylphenoxy) propyl]
[2]
  Judgment: number of specimens confirming bacteria: ◯ (The number of specimens confirming bacteria was 6 to 9: ◯)
[3]
  Judgment: OD620 after culture: ◯ (◯: OD620 is 0.3-0.6)
B16 melanoma 4A5 cell
  Judgment: sample concentration showing the melanogenesis inhibiting ratio of 40% or more: ⊚⊚ (≦30 μmol/L: ⊚⊚)

## O=c1cc(CO)occ1O [Kojic acid]
[1]
  Coloration, 2 weeks after: ◯ (◯: total points of 10 panelists is 22 or more)
[1]; 4 weeks
  Coloration, 4 weeks after: Δ (Δ: total points of 10 panelists is 15 to 21)
B16 melanoma 4A5 cell
  IC40: ≥ 300 µM

## CCC(C)c1ccccc1OCC(O)CO (stereo not shown) [Example 6, 1,2-di-hydroxy-3-(2′-sec-butylphenoxy)propyl]
[2]
  Judgment: number of specimens confirming bacteria: ◯ (The number of specimens confirming bacteria was 6 to 9: ◯)
[3]
  Judgment: OD620 after culture: ◯ (◯: OD620 is 0.3-0.6)
B16 melanoma 4A5 cell
  IC40: 100 to 300 µM

## CCC(C)c1ccc(OCC(O)CO)cc1 (stereo not shown) [Example 5, 1,2-di-hydroxy-3-(4′-sec-butylphenoxy)propyl]
[2]
  Judgment: number of specimens confirming bacteria: ⊚ (The number of specimens confirming bacteria was 5 or less: ⊚)
[3]
  Judgment: OD620 after culture: ◯ (◯: OD620 is 0.3-0.6)
B16 melanoma 4A5 cell
  Judgment: sample concentration showing the melanogenesis inhibiting ratio of 40% or more: ⊚ (30 to 100 μmol/L: ⊚)

## CCOCC(O)COc1ccc(C(C)(C)C)cc1 (stereo not shown) [Example 3 (1-O-ethyl-2-hydroxy-3-(4′-tert-butylphenoxy)propy] [1-O-ethyl-2-hydroxy-3-(4′-tert-butylphenoxy)propyl]
[2]
  Judgment: number of specimens confirming bacteria: ⊚ (The number of specimens confirming bacteria was 5 or less: ⊚)
[3]
  Judgment: OD620 after culture: ◯ (◯: OD620 is 0.3-0.6)
B16 melanoma 4A5 cell
  Judgment: sample concentration showing the melanogenesis inhibiting ratio of 40% or more: ⊚⊚ (≦30 μmol/L: ⊚⊚)

## CCCC(O)CO (stereo not shown) [1,2-pentandiol, reference compound]
[2]
  Judgment: number of specimens confirming bacteria: Δ (The number of specimens confirming bacteria was 10 or more: Δ)

## OC[C@H]1O[C@@H](Oc2ccc(O)cc2)[C@H](O)[C@@H](O)[C@@H]1O [Arbutin]
[1]
  Coloration, 2 weeks after: ◯ (◯: total points of 10 panelists is 22 or more)
[1]; 4 weeks
  Coloration, 4 weeks after: Δ (Δ: total points of 10 panelists is 15 to 21)
B16 melanoma 4A5 cell
  IC40: 30 to 100 µM

## CC(C)(C)c1ccc(OCC(O)CO)cc1 (stereo not shown) [Example 1, 1,2-di-hydroxy-3-(4′-tert-butylphenoxy)propyl]
[2]
  Judgment: number of specimens confirming bacteria: ⊚ (The number of specimens confirming bacteria was 5 or less: ⊚)
[3]
  Judgment: OD620 after culture: ⊚⊚
[1]
  Coloration, 2 weeks after: ◯ (◯: total points of 10 panelists is 22 or more)
[1]; 4 weeks
  Coloration, 4 weeks after: ◯ (◯: total points of 10 panelists is 22 or more)
[1]; summary of Table 8, 50° C., 4 weeks
  Stability in terms of coloration (in words): excellent in stability in terms of coloration
B16 melanoma 4A5 cell
  Judgment: sample concentration showing the melanogenesis inhibiting ratio of 40% or more: ⊚⊚ (≦30 μmol/L: ⊚⊚)

## O=C1O[C@H]([C@@H](O)CO)C(O)=C1O [Ascorbic acid]
[1]
  Coloration, 2 weeks after: X (X: total points of 10 panelists is 14 or less)
[1]; 4 weeks
  Coloration, 4 weeks after: X (X: total points of 10 panelists is 14 or less)
B16 melanoma 4A5 cell
  IC40: ≥ 300 µM
